Earlier results on one compound are cited in paper PMC3468400, “Pharmacokinetic profiles of artesunate following multiple intravenous doses of 2, 4, and 8 mg/kg in healthy volunteers: Phase 1b study” (Malaria Journal, 2012).

Structures are written as SMILES.

The data set relates to severe falciparum malaria. To be noted: SEAQUAMAT, cited from earlier work.

As for `C[C@H]1[C@H](OC(=O)CCC(=O)O)O[C@@H]2O[C@@]3(C)CC[C@H]4[C@H](C)CC[C@@H]1[C@@]24OO3` [AS, 4-(10’dihydro-artemisinin-oxymethyl) succinate], the “reduction of mortality versus quinine” value was 35%. Moreover, the mortality rate (severe malaria patients, intravenous treatment) is 15%.
